From PubChem BioAssay (NCI)
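In this assay, cells in 96-well plates receive the compound at five concentrations for 48 hours. Endpoints are linearly interpolated between the surrounding concentrations. The concentration for 50% growth inhibition is given as GI50. TGI: concentration producing complete growth inhibition.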

Legend:
Assay in all cases: growth of human tumour cells (NCI), 48 h
CCRF-CEM leukemia = system: CCRF-CEM leukemia
LOX IMVI melanoma = system: LOX IMVI melanoma
SK-OV-3 ovarian = system: SK-OV-3 ovarian
RPMI-8226 leukemia = system: RPMI-8226 leukemia
KM12 colon = system: KM12 colon
SN12C renal = system: SN12C renal
SF-268 CNS = system: SF-268 CNS
SK-MEL-5 melanoma = system: SK-MEL-5 melanoma
NCI-H23 lung = system: NCI-H23 lung
NCI/ADR-RES ovarian = system: NCI/ADR-RES ovarian
HOP-62 NSCLC = system: HOP-62 NSCLC
MDA-N = system: MDA-N
BT-549 breast = system: BT-549 breast
T-47D breast = system: T-47D breast

SMILES	TGI (CCRF-CEM leukemia) [µM]	TGI (LOX IMVI melanoma) [µM]	TGI (SK-OV-3 ovarian) [µM]	TGI (RPMI-8226 leukemia) [µM]	TGI (KM12 colon) [µM]	TGI (SN12C renal) [µM]	TGI (SF-268 CNS) [µM]	TGI (SK-MEL-5 melanoma) [µM]	TGI (NCI-H23 lung) [µM]	TGI (NCI/ADR-RES ovarian) [µM]	TGI (HOP-62 NSCLC) [µM]	TGI (MDA-N) [µM]	TGI (BT-549 breast) [µM]	TGI (T-47D breast) [µM]	GI50 (CCRF-CEM leukemia) [µM]	GI50 (RPMI-8226 leukemia) [µM]	GI50 (HOP-62 NSCLC) [µM]	GI50 (SK-MEL-5 melanoma) [µM]	GI50 (NCI-H23 lung) [µM]	GI50 (SN12C renal) [µM]
CC1(C)CC(C2CC(C)(C)CC(C)(C)[C@H]2O)[C@@H](O)C(C)(C)C1 (stereo not given in full)	> 100	> 100	> 100	> 100	> 100	> 100	> 100	> 100	> 100											
O=C1C2=Cc3ccccc3CCN2c2ccc([N+](=O)[O-])cc21	> 100	> 100		> 100	> 100	> 100	> 100	> 100	> 100	> 100	> 100	> 100								
Brc1ccc(C2(N3CCCCC3)CCCCC2)s1	39.2	29	> 100	39.5	> 100	> 100	> 100	22.3	> 100		> 100	> 100	> 100	49.5						
COc1cccc(/C=N/[N-]C(N)=O)c1[O-].[OH3+].[Zn+2]	> 100	> 100	> 100	> 100	> 100	> 100	> 100	> 100	> 100		> 100									
N=C1SCCS1	> 100	> 100	> 100	> 100	> 100	> 100	> 100	> 100	> 100		> 100									
COc1ccc([N+](=O)[O-])cc1[I+]c1cc([N+](=O)[O-])ccc1OC	> 100	73.1	82.3	> 100	94.7	> 100	> 100	24.9	> 100	> 100	> 100		> 100	> 100						
COC(=O)[C@H]1[C@H](OC(=O)[C@@H](OC)c2ccccc2)ON2CC[C@@H](OC(=O)c3ccccc3)[C@H]12	> 100	> 100	> 100	> 100	> 100	> 100	> 100	> 100	> 100	> 100	> 100	> 100		> 100						
O=C1NCC2=C1CCC1c3ccccc3CCN21 (stereo not given)	> 100	> 100	> 100		> 100	> 100	> 100	> 100	> 100											
O=C(CC(C(=O)c1ccsc1)c1cccs1)c1ccsc1 (stereo not given)	> 100	> 100	> 100	> 100	> 100	> 100	> 100	> 100	> 100	> 100	> 100	> 100		84.3						
CC[n+]1c(/C=C/c2ccc(N(CCCl)CCCl)cc2)ccc2cc(Br)ccc21		2.87	9.09		3.3	10.6									304	162	954	135	172	
CC1C2CC(CC2=O)C1(C)C (stereo not given)	> 100		> 100		> 100	> 100	> 100	> 100	> 100		> 100	> 100	> 100	> 100						
CSC(=S)Nc1cc(C)ccn1	> 100	> 100	> 100	> 100	> 100	> 100	> 100	46.5	> 100	> 100	> 100	> 100		> 100						
CCOC(=O)CC(=O)Nc1c(C(=O)OCC)sc2nc(SC)nc(Nc3ccc(OC)c(OC)c3)c12	> 100	> 100			> 100	> 100	> 100	> 100	> 100	> 100		> 100	> 100							
Cc1oc2nc(N(C)C)n3c(C)nnc3c2c1C	> 100	> 100	> 100	> 100	> 100	> 100	> 100	> 100	> 100	> 100			> 100	> 100						
C[C@H]1ON2CCC[C@@H]2[C@@H]1C(=O)N1C2CC3CCC2(CS1(=O)=O)C3(C)C (stereo not given in full)	> 100	> 100	> 100		> 100	> 100	> 100	> 100	> 100	> 100	> 100	> 100		> 100						
COC(=O)C(NC(=O)C12CCC(C)(C(=O)O1)C2(C)C)c1cc(C(C)(C)C)c(O)c(C(C)(C)C)c1 (stereo not given)	> 100	> 100	> 100	> 100	> 100		> 100	> 100	> 100	> 100	> 100		> 100	> 100						
O=C(O)c1ccccc1/C=C1\Cc2ccc3c(c2C1=O)CCCC3	66.2	> 100	> 100	60.8	> 100	> 100	> 100	37	75.4	> 100	> 100		> 100	79.3						
COc1cccc2c(=O)c3c(O)c4cc(N(C)C)ccc4c(OC(C)=O)c3oc12	13.8	24.3	> 100	52.6	34.8	25.5	68.4	25.1	38.4	60.5	41.5	27.8	21.9							
c1ccc(NC2(c3nnnn3C3CCCCC3)CCNCC2)cc1	55.4	30.7	83.4	59.6	31.3	90.1	> 100	34.6	52.4	> 100	31.9			52.1						
N#Cc1c(-c2ccccc2)cc(Nc2ccc(F)cc2)n2c1nc1ccccc12		> 30.4	8.71	> 100	> 100	6.1	> 62.1	2.73	> 27.4	13	40.8		> 25.2	19						
COc1ccc(OC)c(CC(=O)c2ccc(O)c(C(=O)NCCc3ccc(F)cc3)c2)c1	6.65	27	9.96	22.9	13.9	19.4	25	11.4	14.2	8.79	5.63		38.5	8.44	2.4					4.26
CCOC(=O)c1cc(NC(=O)c2ccccc2)c(=O)n2c(cc3c(Cl)cccc32)c1O	> 100	> 100	> 100	> 100	> 100	> 100	> 100	> 100	> 100	> 100	> 100	> 100	> 100							
C=C1C(=O)OC2C3C(=C)[C@@H](OC(C)=O)CC3C(C)=CC(OC(=O)C(C)(O)C(C)OC(C)=O)[C@@H]12 (stereo not given in full)	7.51	19.4	> 100	65.7	28.5	27.8	37.9	20.1	27.3		46.6	18.5	26.7	39						
COC(=O)C1CCCCCCCCCCC12SCCCS2 (stereo not given)	51.1	35.4	> 100		36	31.8	56.5	41.9	> 100	43.1	41.2	> 100		> 100						
COc1ccc2c(c1)CC[C@@H]1C2CC[C@]2(C)C(=O)N(C)C(=O)CC12 (stereo not given in full)	> 100		> 100		> 100	> 100	> 100	> 100	> 100		> 100	> 100	> 100	> 100						
O=C1c2cc([N+](=O)[O-])cnc2S(=O)(=O)N1c1ccc(Oc2ccccc2)cc1	> 100	> 100	> 100	> 100	> 100	> 100			> 100	> 100	> 100		> 100	> 100						
Cc1c(/C=N\NC(=S)N(C)CCN(C)C(=S)N/N=C\c2c(C)n(C)n(-c3ccccc3)c2=O)c(=O)n(-c2ccccc2)n1C			> 100		> 100		> 100	> 100	> 100	> 100	> 100		> 100	> 100						
COc1ccc(-c2c(C(=O)Nc3ccccc3)c(-c3ccccc3)n(C3OC(CO)C(O)C(O)C3O)c(=S)c2C#N)cc1 (stereo not given)	> 100	> 100		> 100	> 100	> 100	> 100	> 100	> 100	> 100	> 100	> 100	> 100							
